≈ marks a conversion by molar mass, not a printed value. Where two headings read alike, the source gives them in different places.
Experiments:
[1] = tested on: S. parasitica T-1; assay: Broth macrodilution susceptibility testing (zoospores and cysts); assay type: cell-based, Saprolegnia parasitica; conditions: S. parasitica T-1, 24 h, 15-20° C., geometric mean of three tests; for MIC: Saprolegnia parasitica, read-out: MIC, Macrodilution
Method: (§1) Two methods were used, each suitable for a different phase of the asexual life cycle of Saprolegnia spp.: i) the broth macrodilution method, for determination of susceptibility of zoospores and cysts; and ii) the agar-dilution method for determination of susceptibility of filamentous hyphae. Each compound was tested three times in each method. Malachite Green was used as positive control.
(§2) This method is a modification of the method used for molds according to EUCAST 7.1 (European Committee on Antibiotic Susceptibility Testing) and CLSI/NCCLS M27-A2 (Clinical Laboratory Standards Institute/National Committee for Clinical Laboratory Standards). For inoculum preparation, S. parasitica isolates were cultured on GP-PS for 7 days with sterile clover seeds at 18° C. […] Cysts and zoospores free from hyphae were collected, and an inoculum of ˜10^3 CFU/ml as measured by hemacytometer counting, was prepared in RPMI. Fluorescent Brightener 28 stock solution was prepared by adding 40% KOH gradually to a 10 mg/ml solution in water, until it was clear, then it was filtered twice through a 0.2 μm cellulose acetate nonpyrogenic sterile filter (Schleicher & Schuell, Dassel, Germany).
(§3) Final drug concentrations in the test tubes ranged from 1×10^4 to 0.01 mg/L. Inoculum of 0.9 ml was added to each of a sterile tube containing 0.1 ml of the serially diluted drug. Two tubes containing drug-free medium and two tubes containing drug-free inoculum were used as controls. The inoculated tubes were incubated at room temperature (15-20° C.) for 24 h. The growth in each tube was then evaluated visually.

[2] = tested on: S. parasitica CBS 540.67; assay: as above; assay type: cell-based, Saprolegnia parasitica; conditions: S. parasitica CBS 540.67, 24 h, 15-20° C., geometric mean of three tests; for MIC: Saprolegnia parasitica, CBS540, read-out: MIC, Macrodilution
Method: as §1, §2, §3

[3] = tested on: S. parasitica; assay: In vitro susceptibility of S. parasitica in Table 4; assay type: cell-based, Saprolegnia parasitica; conditions: for MIC: Saprolegnia parasitica
Method: The in vitro susceptibility of Saprolegnia parasitica T-1 and S. parasitica CBS 540.67 to various compounds was determined by the agar-dilution and broth macrodilution methods.
as §1
This method is a modification of the method used for molds according to EUCAST 7.1 (European Committee on Antibiotic Susceptibility Testing) and CLSI/NCCLS M27-A2 (Clinical Laboratory Standards Institute/National Committee for Clinical Laboratory Standards). For inoculum preparation, S. parasitica isolates were cultured on GP-PS for 7 days with sterile clover seeds at 18° C. Clover seeds (˜20) covered with mycelium were removed and added to 40 ml of RPMI-1640 broth medium (Sigma; prepared according to NCCLS instructions) and incubated at 18° C. for 4-7 days. Cysts and zoospores free from hyphae were collected, and an inoculum of ˜10^3 CFU/ml as measured by hemacytometer counting, was prepared in RPMI. Fluorescent Brightener 28 stock solution was prepared by adding 40% KOH gradually to a 10 mg/ml solution in water, until it was clear, then it was filtered twice through a 0.2 μm cellulose acetate nonpyrogenic sterile filter (Schleicher & Schuell, Dassel, Germany).
as §3, with “Twofold serial dilutions of the resulting stock solutions were set in RPMI-1640 medium in a volume of 0.1 ml. Final” for “Final”
This method is a modification of the method presented by Bailey (Bailey, T. A. (1983) Prog. Fish Cult. 45:24-27), and was used for the susceptibility testing of Saprolegnia hyphae. Twofold serial dilutions were prepared in double distillated sterile water with final drug concentrations ranging from 10,000 to 0.01 mg/L in a final volume of 1.0 ml. Melted (56° C.) RPMI-1640 agar medium (Sigma) was prepared according to NCCLS instructions, and then added to each tube containing drug or water control. The mixture was vortexed, and poured into small plates. After agar solidification a small measured piece, taken from a 7-10 day old culture of S. parasitica T-1 on GP-PS medium was placed upside down on each plate. The plates were incubated at room temperature (15-20° C.) for 24 h.

[4] = tested on: S. parasitica CBS 540.67; assay: Agar-dilution susceptibility testing (filamentous hyphae); assay type: cell-based, Saprolegnia parasitica; conditions: S. parasitica CBS 540.67, 24 h, 15-20° C., geometric mean of three tests; for MIC: Saprolegnia parasitica, CBS540, read-out: MIC, Agar-dilution
[5] = tested on: S. parasitica T-1; assay: as above; assay type: cell-based, Saprolegnia parasitica; conditions: S. parasitica T-1, 24 h, 15-20° C., geometric mean of three tests; for MIC: Saprolegnia parasitica, read-out: MIC, Agar-dilution
Method: as §1
Twofold serial dilutions were prepared in double distillated sterile water with final drug concentrations ranging from 10,000 to 0.01 mg/L in a final volume of 1.0 ml. […] The mixture was vortexed, and poured into small plates. After agar solidification a small measured piece, taken from a 7-10 day old culture of S. parasitica T-1 on GP-PS medium was placed upside down on each plate. The plates were incubated at room temperature (15-20° C.) for 24 h.

[6] = tested on: tilapia; assay: in vivo
Method: (§4) LC50 values were determined by static short-term tests as a measure of the relative acute lethal toxicity for tilapia (Standard methods for the evaluation of water and wastewater (1985) 16th ed. American Public Health Association, Washington, D.C. p. 689-819).
(§5) Hybrid tilapia (Oreochromis niloticus X Oreochromis aureus) having an average weight of 20 g, were kept in 100 liter polyethylene tanks at a density of 1 fish per 10 liters, at a constant temperature of 21° C. for three weeks before the initiation of the experiment by addition of a test compound to each tank. […] For the latter experiments, fish were acclimated to the required temperature for three weeks prior to addition of the test compound to the tank. Fish were treated with 5 different concentrations of each test compound, determined according to the MIC values of each compound.
(§6) Mortality of fish was recorded up to 96 h. Water parameters (O2, NH4^+, NO2^−, pH and Cl^−) were monitored throughout the experiment and were maintained within acceptable limits. The presented results are the mean of two separate experiments.

[7] = in vivo; conditions: hybrid tilapia (Oreochromis niloticus X Oreochromis aureus), in vivo, LC50
Method: as §4, §5, §6

[8] = Table 4 summary, read-out: Activity in vitro (MIC), value
[9] = method and isolate not separated, read-out: MIC

Question: For `[Cl-].[Na+]` [Sodium chloride], which “MIC, Macrodilution” value [1] is on record?
Answer: Its value is 30,000 mg/L.

Question: What about the “MIC, Macrodilution” value [2] of the same compound?
Answer: Its value is 30,000 mg/L.

Question: What about the “Activity in vitro (MIC), value” ([3]; Table 4 summary) of the same compound?
Answer: The value was “Low (30,000 mg/L”.

Question: Which results are given for `C[C@@H]1[C@H](O)[C@@H](C)/C=C/C=C/C=C/C=C/C=C/C=C/C=C/[C@H](O[C@@H]2O[C@H](C)[C@@H](O)[C@H](N)[C@@H]2O)C[C@@H]2O[C@](O)(C[C@@H](O)C[C@@H](O)[C@H](O)CC[C@@H](O)C[C@@H](O)CC(=O)O[C@H]1C)C[C@H](O)[C@H]2C(=O)O` [Amphotericin B]?
Answer: MIC, Agar-dilution [4]: 2.5 µg/mL (≈ 2.71 µM); MIC, Agar-dilution [5]: 5 µg/mL (≈ 5.41 µM); Toxicity ([6]; Table 4 summary): Moderate (moderate = 50-200 ppm); MIC, Macrodilution [1]: 0.5 mg/L (≈ 0.541 µM); MIC, Macrodilution [2]: 0.25 mg/L (≈ 0.271 µM); Activity in vitro (MIC), grade ([3]; Table 4 summary): High; Activity in vitro (MIC), value ([3]; Table 4 summary): (0.1-0.5 mg/L)

Question: For `O=[N+]([O-])C(Br)(CO)CO` [Pyceze ®], which MIC [4] is on record?
Answer: The MIC was 200 µg/mL (≈ 1000 µM).

Question: What about the MIC [5] of the same compound?
Answer: The MIC was 100 µg/mL (≈ 500 µM).

Question: And the Toxicity ([6]; Table 4 summary)?
Answer: The Toxicity was “Moderate (moderate = 50-200 ppm)”.

Question: And the “LC50 values compared with respective MIC values” ([6]; tilapia LC50 versus S. parasitica MIC)?
Answer: The value was “lower, similar or insignificantly different”.

Question: What about the MIC [1] of the same compound?
Answer: Its MIC is 100 µg/mL (≈ 500 µM).

Question: What about the MIC [2] of the same compound?
Answer: The MIC was 100 µg/mL (≈ 500 µM).

Question: What about the MIC [3, 8] of the same compound?
Answer: Its MIC is 100 µg/mL (≈ 500 µM).

Question: With `O=S(=O)([O-])c1cc(Nc2nc(Nc3ccccc3)nc(N(CCO)CCO)n2)ccc1C=Cc1ccc(Nc2nc(Nc3ccccc3)nc(N(CCO)CCO)n2)cc1S(=O)(=O)[O-].[Na+].[Na+]` [Fluorescent Brightener 28] as the compound, how does the “MIC, Agar-dilution” value [4] read?
Answer: Its value is 5 µg/mL.

Question: What about the “MIC, Agar-dilution” value [5] of the same compound?
Answer: The value was 5 µg/mL.

Question: And the “MIC, Macrodilution” value [1]?
Answer: The value was 1 mg/L.

Question: And the “MIC, Macrodilution” value [2]?
Answer: The value was 2 mg/L.

Question: With `C=CCOC(Cn1ccnc1)c1ccc(Cl)cc1Cl` (stereo not shown) [Enilconazole] as the compound, how does the MIC [4] read?
Answer: The MIC was 5 µg/mL (≈ 16.8 µM).

Question: And the MIC [5]?
Answer: Its MIC is 5 µg/mL (≈ 16.8 µM).

Question: And the MIC [1]?
Answer: The MIC was 1 µg/mL (≈ 3.36 µM).

Question: What about the MIC [2] of the same compound?
Answer: The MIC was 1 µg/mL (≈ 3.36 µM).

Question: Which “MIC, Agar-dilution” value [4] does the source give for Tween ® 80 here?
Answer: Its value is 200 µg/mL.

Question: And the “MIC, Agar-dilution” value [5]?
Answer: Its value is 200 µg/mL.

Question: What about the “MIC, Macrodilution” value [1] of the same compound?
Answer: The value was 100 mg/L.

Question: What about the “MIC, Macrodilution” value [2] of the same compound?
Answer: Its value is 100 mg/L.

Question: What does the source list for `OO` [Hydrogen peroxide]?
Answer: LC50 [7]: 75 µg/mL (≈ 2200 µM); Toxicity ([6]; in vivo): Moderate (key: High: high = 50 ppm; Moderate: moderate = 50-200 ppm; Low: low = >1000 ppm); MIC [1]: 10 µg/mL (≈ 294 µM); MIC [2]: 8 µg/mL (≈ 235 µM); MIC [3, 9]: ≤ 10 µg/mL; MIC [3, 8]: 10 µg/mL (≈ 294 µM); Activity in vitro (MIC), grade ([3]; Table 4 summary): High

Question: What does the source list for `CCCCCCCCCCCCOS(=O)(=O)[O-].[Na+]` [SDS, Sodium dodecylsulfate]?
Answer: MIC [4]: 500 µg/mL; MIC [5]: 500 µg/mL; MIC [1]: 100 µg/mL; MIC [2]: 250 µg/mL

Question: For `O=C([O-])[O-].O=C([O-])[O-].OO.OO.OO.[Na+].[Na+].[Na+].[Na+]` [Sodium percarbonate], which Toxicity ([6]; Table 4 summary) is on record?
Answer: The Toxicity was “High (in (high = 50 ppm)”.

Question: And the “MIC, Macrodilution” value [1]?
Answer: The value was 5 mg/L.

Question: And the “MIC, Macrodilution” value [2]?
Answer: Its value is 2.5 mg/L.

Question: And the “Activity in vitro (MIC), grade” value ([3]; Table 4 summary)?
Answer: Its value is “High”.

Question: What about the “Activity in vitro (MIC), value” ([3]; Table 4 summary) of the same compound?
Answer: Its value is “(10 mg/L)”.

Question: For Triton X-100, which “MIC, Agar-dilution” value [4] is on record?
Answer: The value was 200 µg/mL.

Question: And the “MIC, Agar-dilution” value [5]?
Answer: Its value is 200 µg/mL.

Question: What about the “MIC, Macrodilution” value [1] of the same compound?
Answer: The value was 50 mg/L.

Question: What about the “MIC, Macrodilution” value [2] of the same compound?
Answer: Its value is 100 mg/L.

Question: Which MIC [4] does the source give for `C[C@@H]1CC[C@@]2(OC1)O[C@H]1[C@@H](O)[C@H]3[C@@H]4CC[C@H]5C[C@@H](O[C@@H]6O[C@H](CO)[C@H](O[C@@H]7O[C@H](CO)[C@@H](O)[C@H](O[C@@H]8OC[C@@H](O)[C@H](O)[C@H]8O)[C@H]7O[C@@H]7O[C@H](CO)[C@H](O)[C@H](O[C@@H]8O[C@H](CO)[C@@H](O)[C@H](O)[C@H]8O)[C@H]7O)[C@H](O)[C@H]6O)[C@H](O)C[C@]5(C)[C@H]4CC[C@]3(C)[C@H]1[C@@H]2C` [Digitonin] here?
Answer: Its MIC is 20 µg/mL (≈ 16.3 µM).

Question: And the MIC [5]?
Answer: Its MIC is 10 µg/mL (≈ 8.13 µM).

Question: What about the MIC [1] of the same compound?
Answer: Its MIC is 2.5 µg/mL (≈ 2.03 µM).

Question: What about the MIC [2] of the same compound?
Answer: The MIC was 2.5 µg/mL (≈ 2.03 µM).

Question: What about the MIC [3, 9] of the same compound?
Answer: Its MIC is ≤ 10 µg/mL.

Question: Which results are given for `CCCCCCCCCCCCCCCC[N+](C)(C)C.[Br-]` [CTAB]?
Answer: MIC, Agar-dilution [4]: 50 µg/mL; MIC, Agar-dilution [5]: 10 µg/mL; MIC, Macrodilution [1]: 5 mg/L; MIC, Macrodilution [2]: 5 mg/L
